Counter-ions that a name gives are not always drawn.
Legend:
Noradrenaline reuptake = target: T1, Noradrenaline reuptake (Rattus norvegicus, UniProt Q63380); assay: Inhibition of noradrenaline (NA) reuptake in rat brain synaptosomes; assay type: biochemical; conditions: synaptosomes from rat hypothalamus
T1 construct: synaptosomes are freshly isolated from areas of the rat brain; from tissue; host or cells: P2 synaptosome fraction from the hypothalamus of male rat brains
Description: (§1) In order to be able to carry out these in vitro studies, synaptosomes are freshly isolated from areas of the rat brain. In each case a so-called “P2” fraction prepared in accordance with the instruction of Gray and Whittaker (E. G. Gray and V. P. Whittaker (1962) J. Anat. 76, 79-88) is prepared. For the NA uptake, these vesicular particles are isolated from the hypothalamus of male rat brains.
(§2) A detailed description of the method can be found in the literature (M. Ch. Frink, H.-H. Hennies, W. Englberger, M. Haurand and B. Wilffert (1996) Arzneim.-Forsch./Drug Res. 46 (III), 11, 1029-1036).

human μ opiate receptor = target: T2, human μ opiate receptor (Homo sapiens, UniProt P35372); assay: Affinity for the human μ opiate receptor ([3H]-naloxone displacement, CHO-K1 membrane preparation, SPA); assay type: binding; conditions: for μ opioid receptor [1 μM], % inhibition / inhibition at 1 µM: 1 μM test substance, displacement of [3H]-naloxone; for inhibition at 1 µM: read-out: μ opioid receptor [1 μM], % inhibition; for Ki: Cheng-Prusoff conversion from IC50, read-out: μ opioid receptor, Ki
T2 construct: purchased PerkinElmer Life Sciences, Zaventem, Belgium RB-HOM; host or cells: CHO-K1 cells (recombinant expression)
Outline: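 CHO-K1 membranes expressing human μ receptor (15-40 μg protein/250 μl) were incubated 90 min at room temperature with 1 nmol/l [³H]-naloxone and WGA-SPA beads in 50 mmol/l Tris-HCl with 0.06% BSA; 100 μmol/l naloxone defined nonspecific binding. Percent displacement measured at 1 μmol/l; IC50 converted to Ki via Cheng-Prusoff.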

Serotonin reuptake = target: T3, Serotonin reuptake (Rattus norvegicus, UniProt P31652); assay: Inhibition of serotonin (5HT) reuptake in rat brain synaptosomes; assay type: biochemical
T3 construct: synaptosomes are freshly isolated from areas of the rat brain; from tissue
Description: as §1, §2

T1 sequence (Q63380 1-617): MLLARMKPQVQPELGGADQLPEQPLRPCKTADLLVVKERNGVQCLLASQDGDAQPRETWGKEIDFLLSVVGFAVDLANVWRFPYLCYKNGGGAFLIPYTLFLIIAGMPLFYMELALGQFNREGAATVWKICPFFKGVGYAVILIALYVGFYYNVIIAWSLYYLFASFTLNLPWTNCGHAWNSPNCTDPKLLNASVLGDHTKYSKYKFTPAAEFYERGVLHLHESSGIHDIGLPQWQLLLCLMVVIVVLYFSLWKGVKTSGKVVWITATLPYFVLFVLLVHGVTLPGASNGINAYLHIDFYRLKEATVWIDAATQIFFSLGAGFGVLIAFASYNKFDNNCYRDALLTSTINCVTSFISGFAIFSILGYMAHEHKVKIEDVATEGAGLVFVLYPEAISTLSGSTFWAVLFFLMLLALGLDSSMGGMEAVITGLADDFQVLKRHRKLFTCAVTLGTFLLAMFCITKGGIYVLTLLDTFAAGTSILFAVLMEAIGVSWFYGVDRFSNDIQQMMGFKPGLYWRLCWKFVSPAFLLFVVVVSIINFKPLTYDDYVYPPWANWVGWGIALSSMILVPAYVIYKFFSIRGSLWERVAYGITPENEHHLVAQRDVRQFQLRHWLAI
T3 sequence (P31652 whole entry): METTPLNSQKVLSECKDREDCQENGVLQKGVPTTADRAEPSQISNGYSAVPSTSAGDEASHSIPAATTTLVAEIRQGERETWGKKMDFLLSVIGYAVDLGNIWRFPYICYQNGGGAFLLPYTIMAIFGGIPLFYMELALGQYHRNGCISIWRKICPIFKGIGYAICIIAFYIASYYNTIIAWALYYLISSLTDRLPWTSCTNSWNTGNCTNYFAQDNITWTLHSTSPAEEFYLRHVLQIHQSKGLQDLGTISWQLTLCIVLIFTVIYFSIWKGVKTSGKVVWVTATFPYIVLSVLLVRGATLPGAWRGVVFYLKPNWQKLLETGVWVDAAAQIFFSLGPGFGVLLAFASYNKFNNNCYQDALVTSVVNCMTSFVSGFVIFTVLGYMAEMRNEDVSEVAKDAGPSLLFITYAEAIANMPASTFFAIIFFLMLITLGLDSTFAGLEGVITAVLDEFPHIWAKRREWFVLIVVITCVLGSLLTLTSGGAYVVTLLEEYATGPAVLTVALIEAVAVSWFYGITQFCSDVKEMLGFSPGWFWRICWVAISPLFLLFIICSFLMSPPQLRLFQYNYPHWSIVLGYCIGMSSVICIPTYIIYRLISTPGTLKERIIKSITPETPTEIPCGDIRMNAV
T2 sequence (P35372 whole entry): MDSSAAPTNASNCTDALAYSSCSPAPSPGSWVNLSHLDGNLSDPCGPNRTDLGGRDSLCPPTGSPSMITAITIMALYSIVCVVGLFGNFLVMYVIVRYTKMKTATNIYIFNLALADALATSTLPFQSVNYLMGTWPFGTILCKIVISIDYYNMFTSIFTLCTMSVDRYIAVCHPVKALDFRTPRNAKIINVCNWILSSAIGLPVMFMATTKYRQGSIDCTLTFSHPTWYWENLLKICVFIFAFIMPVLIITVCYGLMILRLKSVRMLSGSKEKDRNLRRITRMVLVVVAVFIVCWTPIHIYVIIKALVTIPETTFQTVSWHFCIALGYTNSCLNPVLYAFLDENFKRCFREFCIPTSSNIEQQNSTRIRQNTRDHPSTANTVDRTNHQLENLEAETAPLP

SMILES: CN(C)C(c1cccs1)C1CCC2(CC1)NCCc1c2[nH]c2ccccc12 (stereo not drawn) [Compound 21, 1,1-[3-(Dimethylamino-(thiophen-2-yl)-methyl)-pentamethylene]-3,4-dihydro-1H-2,9-diazafluorene]
- Noradrenaline reuptake, % inhibition [10 μM] (Noradrenaline reuptake): 50%
- μ opioid receptor [1 μM], % inhibition (human μ opiate receptor): 62%
- Serotonin reuptake, % inhibition [10 μM] (Serotonin reuptake): 72%

SMILES: CN(C)C(c1ccc(Cl)cc1)C1CCC2(CC1)NCCc1c2[nH]c2ccccc12 (stereo not drawn) [Compound 22, 1,1-[3-(4-Chlorophenyl-(dimethylamino)-methyl)-pentamethylene]-3,4-dihydro-1H-2,9-diazafluorene]
- μ opioid receptor [1 μM], % inhibition (human μ opiate receptor): 33%
- Serotonin reuptake, % inhibition [10 μM] (Serotonin reuptake): 76%

SMILES: CN(C)C(c1ccc(F)cc1)C1CCC2(CC1)OCCc1c2[nH]c2ccccc12 (stereo not drawn) [Compound 25, 1,1-[3-(Dimethylamino-(4-fluorophenyl)-methyl)-pentamethylene]-1,3,4,9-tetrahydro-pyrano[3,4-b]indole]
- inhibition at 1 µM (human μ opiate receptor): 86%
- Ki (human μ opiate receptor): 350 nM
- inhibition at 10 µM (Serotonin reuptake): 68%

SMILES: CN(C)C(c1cccc(F)c1)C1CCC2(CC1)OCCc1c2[nH]c2ccccc12 (stereo not drawn) [Compound 26, 1,1-[3-(Dimethylamino-(3-fluorophenyl)-methyl)-pentamethylene]-1,3,4,9-tetrahydro-pyrano[3,4-b]indole Citrate]
- inhibition at 10 µM (Noradrenaline reuptake): 49%
- inhibition at 1 µM (human μ opiate receptor): 94%
- Ki (human μ opiate receptor): 33 nM
- inhibition at 10 µM (Serotonin reuptake): 59%

SMILES: CN(C)C(CCc1ccccc1)C1CCC2(CC1)OCCc1c2[nH]c2ccccc12 (stereo not drawn) [Compound 28, 1,1-[3-(Dimethylamino-(phenylethyl)-methyl)-pentamethylene]-1,3,4,9-tetrahydropyrano[3,4-b]indole]
- inhibition at 10 µM (Noradrenaline reuptake): 52%
- inhibition at 1 µM (human μ opiate receptor): 92%
- Ki (human μ opiate receptor): 110 nM
- inhibition at 10 µM (Serotonin reuptake): 57%

SMILES: CN(C)C(c1ccccc1)C1CCC2(CC1)OCCc1c2[nH]c2ccc(F)cc12 (stereo not drawn) [Compound 37, 6-Fluoro-1,1-[3-(dimethylamino-(phenyl)-methyl)-pentamethylene]-1,3,4,9-tetrahydro-pyrano[3,4-b]indole]
- inhibition at 1 µM (human μ opiate receptor): 74%
- Ki (human μ opiate receptor): 37 nM
- inhibition at 10 µM (Serotonin reuptake): 68%

SMILES: Cc1ccc2[nH]c3c(c2c1)CC(C)OC31CCC(C(c2ccc(F)cc2)N(C)C)CC1 (stereo not drawn) [Compound 40, 3,6-Dimethyl-1,1-[3-(dimethylamino-(4-fluorophenyl)-methyl) -pentamethylene]-1,3,4,9-tetrahydropyrano[3,4-b]indole]
- μ opioid receptor [1 μM], % inhibition (human μ opiate receptor): 68%
- Serotonin reuptake, % inhibition [10 μM] (Serotonin reuptake): 47%

SMILES: Cc1ccc2[nH]c3c(c2c1)CC(C)OC31CCC(C(c2ccccc2)N(C)C)CC1 (stereo not drawn) [Compound 42, 3,6-Dimethyl-1,1-[3-(dimethylamino-(phenyl)-methyl)-pentamethylene]-1,3,4,9-tetrahydropyrano[3,4-b]indole Citrate]
- inhibition at 1 µM (human μ opiate receptor): 101%
- Ki (human μ opiate receptor): 29 nM
- inhibition at 10 µM (Serotonin reuptake): 64%

SMILES: CC1Cc2c([nH]c3ccc(F)cc23)C2(CCC(C(c3ccc(F)cc3)N(C)C)CC2)O1 (stereo not drawn) [Compound 51, 6-Fluoro-3-methyl-1,1-[3-(dimethylamino-(4-fluorophenyl) -methyl)-pentamethylene]-1,3,4,9-tetrahydropyrano[3,4-b]indole]
- μ opioid receptor [1 μM], % inhibition (human μ opiate receptor): 46%
- Serotonin reuptake, % inhibition [10 μM] (Serotonin reuptake): 39%

SMILES: CC1Cc2c([nH]c3ccc(F)cc23)C2(CCC(C(c3cccc(F)c3)N(C)C)CC2)O1 (stereo not drawn) [Compound 52, 6-Fluoro-3-methyl-1,1-[3-(dimethylamino-(3-fluorophenyl) -methyl)-pentamethylene]-1,3,4,9-tetrahydropyrano[3,4-b]indole]
- μ opioid receptor [1 μM], % inhibition (human μ opiate receptor): 53%
- Serotonin reuptake, % inhibition [10 μM] (Serotonin reuptake): 68%

SMILES: CC1Cc2c([nH]c3ccc(F)cc23)C2(CCC(C(CCc3ccccc3)N(C)C)CC2)O1 (stereo not drawn) [Compound 54, 6-Fluoro-3-methyl-1,1-[3-(dimethylamino-(phenylethyl)-methyl) -pentamethylene]-1,3,4,9-tetrahydropyrano[3,4-b]indole]
- μ opioid receptor [1 μM], % inhibition (human μ opiate receptor): 21%
- Serotonin reuptake, % inhibition [10 μM] (Serotonin reuptake): 55%

Source: US8124788B2, “Spirocyclic cyclohexane compounds with analgesic activity” (Gruenenthal GmbH, priority 2006, dated 2012)
